Assay results: patent US9926281B2 (priority 2014, dated 2018)
Like-named read-outs stand apart in the source and are kept apart here.

Experiments:
rnADAMTS-5 (1-564-6H) = rnADAMTS-5 (1-564-6H) (Rattus norvegicus, UniProt Q6TY19); settings: read-out: Rat ADAMTS-5 potency IC50
human ADAMTS-5 [1] = target: T1, human ADAMTS-5 (Homo sapiens (Human), UniProt Q9UNA0); settings: read-out: hADAMTS-5 potency IC50
human TACE [2] = target: T2, human TACE (Homo sapiens (Human), UniProt P78536); settings: read-out: TACE potency IC50
human MMP13 [3] = target: T3, human MMP13 (Homo sapiens (Human), UniProt P45452); settings: read-out: hMMP-13 potency IC50
Experimental: The reaction is initiated by adding to the assay plate 520 MMP-fret substrate XV (10 μL, 4 μM) in the same buffer.

human ADAMTS-5 [4] = target: T1, human ADAMTS-5; test: biochemical
Experimental: Finally, the fluorescence is read on the Envision (Perkin Elmer) after an incubation of 90 min at 37° C.

human TACE [5] = target: T2, human TACE; test: biochemical
human MMP13 [6] = target: T3, human MMP13; test: biochemical
Experimental: Human MMP13 is preactivated by incubated the enzyme in the same buffer complemented with 1 mM freshly prepared p-Aminophenylmercuric acetate (AMPA) for 1 hour at 37° C.

T1 sequence (Q9UNA0 262-930): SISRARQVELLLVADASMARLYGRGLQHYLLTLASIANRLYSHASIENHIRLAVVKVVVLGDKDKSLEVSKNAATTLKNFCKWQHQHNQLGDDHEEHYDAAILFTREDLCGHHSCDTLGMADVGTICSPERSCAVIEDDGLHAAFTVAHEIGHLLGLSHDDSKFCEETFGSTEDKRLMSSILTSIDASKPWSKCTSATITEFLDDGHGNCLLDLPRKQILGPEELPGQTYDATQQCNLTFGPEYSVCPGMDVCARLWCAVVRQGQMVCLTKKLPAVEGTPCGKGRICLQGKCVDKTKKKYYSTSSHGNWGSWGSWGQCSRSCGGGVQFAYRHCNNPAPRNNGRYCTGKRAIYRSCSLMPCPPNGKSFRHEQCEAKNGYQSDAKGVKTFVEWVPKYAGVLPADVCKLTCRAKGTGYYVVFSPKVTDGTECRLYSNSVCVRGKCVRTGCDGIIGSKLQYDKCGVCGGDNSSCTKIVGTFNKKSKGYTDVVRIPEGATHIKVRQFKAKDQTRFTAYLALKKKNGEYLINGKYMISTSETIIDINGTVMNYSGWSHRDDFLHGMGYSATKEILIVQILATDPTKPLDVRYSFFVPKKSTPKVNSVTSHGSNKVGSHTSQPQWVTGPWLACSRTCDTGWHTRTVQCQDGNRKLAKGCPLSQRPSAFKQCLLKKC
T2 sequence (P78536 whole entry, looked up, change not shown): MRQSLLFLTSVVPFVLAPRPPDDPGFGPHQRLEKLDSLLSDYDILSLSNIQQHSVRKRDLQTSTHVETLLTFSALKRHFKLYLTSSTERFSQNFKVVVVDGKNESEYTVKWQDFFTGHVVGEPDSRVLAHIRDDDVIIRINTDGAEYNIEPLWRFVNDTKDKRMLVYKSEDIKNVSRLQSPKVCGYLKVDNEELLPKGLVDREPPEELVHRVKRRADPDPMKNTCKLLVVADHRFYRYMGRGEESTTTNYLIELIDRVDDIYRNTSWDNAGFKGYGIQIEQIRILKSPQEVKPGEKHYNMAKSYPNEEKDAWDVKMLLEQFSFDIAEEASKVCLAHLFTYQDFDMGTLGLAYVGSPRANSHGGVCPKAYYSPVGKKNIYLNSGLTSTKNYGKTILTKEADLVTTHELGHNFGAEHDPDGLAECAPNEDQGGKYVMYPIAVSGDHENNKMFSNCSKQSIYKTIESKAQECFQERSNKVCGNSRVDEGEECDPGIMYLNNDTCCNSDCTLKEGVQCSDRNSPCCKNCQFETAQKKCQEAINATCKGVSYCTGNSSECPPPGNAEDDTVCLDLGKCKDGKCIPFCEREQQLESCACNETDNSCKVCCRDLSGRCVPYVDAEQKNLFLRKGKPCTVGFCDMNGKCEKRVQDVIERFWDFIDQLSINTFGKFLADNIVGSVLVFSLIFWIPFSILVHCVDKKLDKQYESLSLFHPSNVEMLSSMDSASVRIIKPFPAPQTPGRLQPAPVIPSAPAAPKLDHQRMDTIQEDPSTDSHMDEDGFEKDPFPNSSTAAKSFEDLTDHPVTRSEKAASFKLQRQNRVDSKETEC

SMILES	IC50 (rnADAMTS-5 (1-564-6H))	IC50 (human ADAMTS-5 [1])	IC50 (human TACE [2])	IC50 (human MMP13 [3])	IC50 (human ADAMTS-5 [4])	IC50 (human TACE [5])	IC50 (human MMP13 [6])
O=C1NC(=O)C(CCC(=O)N2CCN(c3ccc4cnccc4c3)CC2)(c2ccccc2)N1 (centres unmarked) [compound 14, 5-[3-[4-(6-isoquinolyl)piperazin-1-yl]-3-oxo-propyl]-5-phenyl-imidazolidine-2,4-dione]	784 nM	897 nM	> 4000 nM	0.366 µM	–	–	–
Cc1ccc(Cl)cc1N1CCN(C(=O)CCC2(C)NC(=O)NC2=O)CC1 (centres unmarked) [compound 16, 5-[3-[4-(5-chloro-2-methyl-phenyl)piperazin-1-yl]-3-oxo-propyl]-5-methyl-imidazolidine-2,4-dione]	329 nM	301 nM	457 nM	> 20 µM	–	–	–
Cc1c(Cl)cccc1N1CCN(C(=O)CCC2(C)NC(=O)NC2=O)CC1 (centres unmarked) [compound 18, 5-[3-[4-(3-chloro-2-methyl-phenyl)piperazin-1-yl]-3-oxo-propyl]-5-methyl-imidazolidine-2,4-dione]	930 nM	675 nM	> 4000 nM	> 20 µM	–	–	–
O=C1NC(=O)C(CCC(=O)N2CCN(c3ccccc3Cl)CC2)(c2ccccc2)N1 (centres unmarked) [compound 20, 5-[3-[4-(2-chlorophenyl)piperazin-1-yl]-3-oxo-propyl]-5-phenyl-imidazolidine-2,4-dione]	1270 nM	1280 nM	> 4000 nM	> 20 µM	–	–	–
Cc1c(Cl)cccc1N1CCN(C(=O)CCC2(c3ccccc3)NC(=O)NC2=O)CC1 (centres unmarked) [compound 21, 5-[3-[4-(3-chloro-2-methyl-phenyl)piperazin-1-yl]-3-oxo-propyl]-5-phenyl-imidazolidine-2,4-dione]	162 nM	166 nM	2060 nM	> 20 µM	–	–	–
C[C@H]1CN(C(=O)CCC2(C)NC(=O)NC2=O)CCN1c1ccc(Cl)c(F)c1 (stereo partly drawn) [compound 164, 5-[3-[(3S)-4-(4-chloro-3-fluoro-phenyl)-3-methyl-piperazin-1-yl]-3-oxo-propyl]-5-methyl-imidazolidine-2,4-dione]	–	–	–	–	236 nM	> 20 µM	> 20 µM
C[C@H]1CN(C(=O)CCC2(C3CC3)NC(=O)NC2=O)CCN1c1cccc2c1cnn2C (stereo partly drawn) [compound 333, 5-cyclopropyl-5-[3-[(3S)-3-methyl-4-(1-methylindazol-4-yl)piperazin-1-yl]-3-oxo-propyl]imidazolidine-2,4-dione]	–	–	–	–	3120 nM	> 20 µM	–
C[C@H]1CN(C(=O)CCC2(c3ccc(C(F)(F)F)nc3)NC(=O)NC2=O)CCN1c1cc(F)cc(F)c1 (stereo partly drawn) [compound 335, 5-[3-[(3S)-4-(3,5-difluorophenyl)-3-methyl-piperazin-1-yl]-3-oxo-propyl]-5-[6-(trifluoromethyl)-3-pyridyl]imidazolidine-2,4-dione]	–	–	–	–	78 nM	> 4 µM	–
COCC1(CC(C)C(=O)N2CCN(c3cncc(F)c3)[C@@H](C)C2)NC(=O)NC1=O (stereo partly drawn) [compound 364, 5-[3-[(3S)-4-(5-fluoro-3-pyridyl)-3-methyl-piperazin-1-yl]-2-methyl-3-oxo-propyl]-5-(methoxymethyl)imidazolidine-2,4-dione]	–	–	–	–	92 nM	> 20 µM	–
